Assay results reported in ChEMBL document CHEMBL3044631, “Synthesis of 2-[4,5-dimethyl-1-(phenylamino)-1H-imidazol-2-ylthio]-N-(thiazole-2-yl)acetamide derivatives and their anticancer activities” (2013).

Experiments:
Type in all cases: functional
SW-620 = assay: Anticancer activity against Homo sapiens (human) SW620 cells after 48 hr by SRB assay; settings: SW-620, 48 h
HCT-15 = assay: Anticancer activity against Homo sapiens (human) HCT15 cells after 48 hr by SRB assay; settings: HCT-15, 48 h
NCI-H522 = assay: Anticancer activity against Homo sapiens (human) NCI-H522 cells after 48 hr by SRB assay; settings: NCI-H522, 48 h
NCI-H322M = assay: Anticancer activity against Homo sapiens (human) NCI-H322M cells after 48 hr by SRB assay
EKVX = assay: Anticancer activity against Homo sapiens (human) EKVX cells after 48 hr by SRB assay
HOP-62 = assay: Anticancer activity against Homo sapiens (human) HOP62 cells after 48 hr by SRB assay; settings: HOP-62, 48 h
A549 = assay: Anticancer activity against Homo sapiens (human) A549/ATCC cells after 48 hr by SRB assay; settings: A549, 48 h
MOLT-4 = assay: Anticancer activity against Homo sapiens (human) MOLT4 cells after 48 hr by SRB assay; settings: MOLT-4, 48 h
HL-60(TB) = assay: Anticancer activity against Homo sapiens (human) HL-60(TB) cells after 48 hr by SRB assay; settings: HL-60, 48 h
NCI-H460 = assay: Anticancer activity against Homo sapiens (human) NCI-H460 cells after 48 hr by SRB assay; settings: NCI-H460, 48 h
MDA-MB-468 = assay: Anticancer activity against Homo sapiens (human) MDA-MB-468 cells after 48 hr by SRB assay; settings: MDA-MB-468, 48 h
BT-549 = assay: Anticancer activity against Homo sapiens (human) BT549 cells after 48 hr by SRB assay; settings: BT-549, 48 h
Hs-578T = assay: Anticancer activity against Homo sapiens (human) Hs 578T cells after 48 hr by SRB assay
MDA-MB-231 = assay: Anticancer activity against Homo sapiens (human) MDA-MB-231/ATCC cells after 48 hr by SRB assay; settings: MDA-MB-231, 48 h
DU-145 = assay: Anticancer activity against Homo sapiens (human) DU145 cells after 48 hr by SRB assay; settings: DU-145, 48 h
SK-OV-3 = assay: Anticancer activity against Homo sapiens (human) SKOV3 cells after 48 hr by SRB assay; settings: SK-OV-3, 48 h
OVCAR-8 = assay: Anticancer activity against Homo sapiens (human) OVCAR8 cells after 48 hr by SRB assay; settings: OVCAR-8, 48 h
OVCAR-5 = assay: Anticancer activity against Homo sapiens (human) OVCAR5 cells after 48 hr by SRB assay; settings: OVCAR-5, 48 h
OVCAR-4 = assay: Anticancer activity against Homo sapiens (human) OVCAR4 cells after 48 hr by SRB assay; settings: OVCAR-4, 48 h
UACC-62 = assay: Anticancer activity against Homo sapiens (human) UACC62 cells after 48 hr by SRB assay; settings: UACC-62, 48 h
SK-MEL-5 = assay: Anticancer activity against Homo sapiens (human) SK-MEL-5 cells after 48 hr by SRB assay; settings: SK-MEL-5, 48 h
MDA-MB-435 = assay: Anticancer activity against Homo sapiens (human) MDA-MB-435 cells after 48 hr by SRB assay; settings: MDA-MB-435, 48 h
LOX IMVI = assay: Anticancer activity against Homo sapiens (human) LOXIMVI cells after 48 hr by SRB assay
U-251 = assay: Anticancer activity against Homo sapiens (human) U251 cells after 48 hr by SRB assay; settings: U-251, 48 h
UO-31 = assay: Anticancer activity against Homo sapiens (human) UO31 cells after 48 hr by SRB assay; settings: UO-31, 48 h
TK-10 = assay: Anticancer activity against Homo sapiens (human) TK10 cells after 48 hr by SRB assay; settings: TK-10, 48 h
SN12C = assay: Anticancer activity against Homo sapiens (human) SN12C cells after 48 hr by SRB assay
CAKI-1 = assay: Anticancer activity against Homo sapiens (human) CAKI-1 cells after 48 hr by SRB assay; settings: CAKI-1, 48 h
ACHN = assay: Anticancer activity against Homo sapiens (human) ACHN cells after 48 hr by SRB assay
A498 = assay: Anticancer activity against Homo sapiens (human) A498 cells after 48 hr by SRB assay; settings: A498, 48 h
CCRF-CEM = assay: Anticancer activity against Homo sapiens (human) CCRF-CEM cells assessed as cell growth promotion at 10 uM after 48 hr by SRB assay
[1] = read-out: LC50 (the source's name)

Question: Which GI50 (SW-620) does the source give for `COc1ccc(Nn2c(SCC(=O)Nc3nc(-c4ccc(Cl)cc4)cs3)nc(C)c2C)cc1` here?
Answer: 4.78 µM

Question: And the LC50 (concentration killing 50% of cells) (SW-620)?
Answer: > 100 µM

Question: What about the TGI (SW-620) of the same compound?
Answer: > 100 µM

Question: What about the GI50 (HCT-15) of the same compound?
Answer: 4.79 µM

Question: And the TGI (HCT-15)?
Answer: > 100 µM

Question: What about the CC50 (HCT-15; [1]) of the same compound?
Answer: > 100 µM

Question: And the GI50 (NCI-H522)?
Answer: 5.05 µM

Question: And the LC50 (50% lethal concentration) (NCI-H522)?
Answer: > 100 µM

Question: What about the TGI (NCI-H522) of the same compound?
Answer: > 100 µM

Question: What about the GI50 (NCI-H322M) of the same compound?
Answer: > 100 µM

Question: What about the TGI (NCI-H322M) of the same compound?
Answer: > 100 µM

Question: What about the CC50 (NCI-H322M; [1]) of the same compound?
Answer: > 100 µM

Question: What about the GI50 (EKVX) of the same compound?
Answer: 1.92 µM

Question: What about the TGI (EKVX) of the same compound?
Answer: > 100 µM

Question: And the CC50 (EKVX; [1])?
Answer: > 100 µM

Question: And the LC50 (HOP-62)?
Answer: > 100 µM

Question: What about the GI50 (A549) of the same compound?
Answer: 3.32 µM

Question: And the LC50 (A549)?
Answer: > 100 µM

Question: And the TGI (A549)?
Answer: > 100 µM

Question: What about the GI50 (MOLT-4) of the same compound?
Answer: 2.54 µM

Question: And the LC50 (50% lethal concentration) (MOLT-4)?
Answer: > 100 µM

Question: And the TGI (MOLT-4)?
Answer: > 100 µM

Question: What about the GI50 (HL-60(TB)) of the same compound?
Answer: > 100 µM

Question: And the TGI (HL-60(TB))?
Answer: 59.1 µM

Question: What about the CC50 (HL-60(TB); [1]) of the same compound?
Answer: > 100 µM

Question: And the GI50 (NCI-H460)?
Answer: 2.69 µM

Question: And the LC50 (NCI-H460)?
Answer: > 100 µM

Question: What about the TGI (NCI-H460) of the same compound?
Answer: 10.6 µM

Question: What about the GI50 (MDA-MB-468) of the same compound?
Answer: 0.57 µM

Question: And the LC50 (MDA-MB-468)?
Answer: > 100 µM

Question: And the TGI (MDA-MB-468)?
Answer: 7.73 µM

Question: What about the GI50 (BT-549) of the same compound?
Answer: 6.46 µM

Question: And the LC50 (BT-549)?
Answer: > 100 µM

Question: What about the TGI (BT-549) of the same compound?
Answer: 82 µM

Question: And the GI50 (Hs-578T)?
Answer: 11.8 µM

Question: And the TGI (Hs-578T)?
Answer: > 100 µM

Question: And the CC50 (Hs-578T; [1])?
Answer: > 100 µM

Question: What about the GI50 (MDA-MB-231) of the same compound?
Answer: 8.37 µM

Question: What about the TGI (MDA-MB-231) of the same compound?
Answer: > 100 µM

Question: And the CC50 (MDA-MB-231; [1])?
Answer: > 100 µM

Question: What about the GI50 (DU-145) of the same compound?
Answer: 4.06 µM

Question: And the LC50 (concentration killing 50% of cells) (DU-145)?
Answer: > 100 µM

Question: What about the TGI (DU-145) of the same compound?
Answer: > 100 µM

Question: And the GI50 (SK-OV-3)?
Answer: 4.24 µM

Question: What about the LC50 (50% lethal concentration) (SK-OV-3) of the same compound?
Answer: > 100 µM

Question: And the TGI (SK-OV-3)?
Answer: > 100 µM

Question: And the GI50 (OVCAR-8)?
Answer: 4.82 µM

Question: And the TGI (OVCAR-8)?
Answer: > 100 µM

Question: What about the CC50 (OVCAR-8; [1]) of the same compound?
Answer: > 100 µM

Question: And the GI50 (OVCAR-5)?
Answer: > 100 µM

Question: What about the LC50 (OVCAR-5) of the same compound?
Answer: > 100 µM

Question: What about the TGI (OVCAR-5) of the same compound?
Answer: > 100 µM

Question: And the GI50 (OVCAR-4)?
Answer: 4.02 µM

Question: And the LC50 (concentration killing 50% of starting cells) (OVCAR-4)?
Answer: > 100 µM

Question: And the TGI (OVCAR-4)?
Answer: > 100 µM

Question: And the GI50 (UACC-62)?
Answer: 3.62 µM

Question: What about the LC50 (UACC-62) of the same compound?
Answer: > 100 µM

Question: And the TGI (UACC-62)?
Answer: > 100 µM

Question: What about the GI50 (SK-MEL-5) of the same compound?
Answer: 1.41 µM

Question: And the LC50 (concentration killing 50% of cells) (SK-MEL-5)?
Answer: 7.96 µM

Question: What about the TGI (SK-MEL-5) of the same compound?
Answer: 3.35 µM

Question: And the GI50 (MDA-MB-435)?
Answer: 3.22 µM

Question: What about the LC50 (concentration killing 50% of cells) (MDA-MB-435) of the same compound?
Answer: > 100 µM

Question: And the TGI (MDA-MB-435)?
Answer: > 100 µM

Question: And the GI50 (LOX IMVI)?
Answer: 3.02 µM

Question: What about the LC50 (50% lethal concentration) (LOX IMVI) of the same compound?
Answer: > 100 µM

Question: And the TGI (LOX IMVI)?
Answer: 44.2 µM

Question: And the GI50 (U-251)?
Answer: 4.03 µM

Question: What about the LC50 (lethal concentration, 50% net cell kill) (U-251) of the same compound?
Answer: > 100 µM

Question: What about the TGI (U-251) of the same compound?
Answer: > 100 µM

Question: What about the GI50 (UO-31) of the same compound?
Answer: 2.62 µM

Question: And the TGI (UO-31)?
Answer: > 100 µM

Question: What about the CC50 (UO-31; [1]) of the same compound?
Answer: > 100 µM

Question: What about the GI50 (TK-10) of the same compound?
Answer: 14.8 µM

Question: And the LC50 (50% lethal concentration) (TK-10)?
Answer: > 100 µM

Question: What about the TGI (TK-10) of the same compound?
Answer: 80.9 µM

Question: What about the GI50 (SN12C) of the same compound?
Answer: 2.3 µM

Question: And the LC50 (concentration killing 50% of cells) (SN12C)?
Answer: > 100 µM

Question: And the TGI (SN12C)?
Answer: 7.52 µM

Question: And the GI50 (CAKI-1)?
Answer: 2.16 µM

Question: And the LC50 (concentration killing 50% of cells) (CAKI-1)?
Answer: > 100 µM

Question: And the TGI (CAKI-1)?
Answer: > 100 µM

Question: What about the GI50 (ACHN) of the same compound?
Answer: 2.27 µM

Question: What about the LC50 (concentration killing 50% of cells) (ACHN) of the same compound?
Answer: > 100 µM

Question: What about the TGI (ACHN) of the same compound?
Answer: 8.76 µM

Question: And the GI50 (A498)?
Answer: 2.22 µM

Question: And the LC50 (A498)?
Answer: > 100 µM

Question: And the TGI (A498)?
Answer: 56.5 µM

Question: `Cc1nc(SCC(=O)Nc2nccs2)n(Nc2ccc(Cl)cc2)c1C` was tested. Which Activity (CCRF-CEM) did it give?
Answer: 99.59%

Question: Which Activity (CCRF-CEM) does the source give for `COc1ccc(Nn2c(SCC(=O)Nc3nccs3)nc(C)c2C)cc1` here?
Answer: 100.87%
